Data as given in ChEMBL document CHEMBL1201862, “PubChem BioAssay data set” (2004).
The source made the active and inactive calls.

What was measured:
cells = type: functional
[1] = HepG2 cell cytotoxicity, dose response, cytotoxicity control for non-replicating M. tuberculosis project (AID 489018); type: functional; details: Mycobacterium tuberculosis
[2] = microbe, parasite or virus in culture; type: functional; details: Mycobacterium tuberculosis
[3] = molecular target: Voltage-dependent T-type calcium channel subunit alpha-1H (Homo sapiens, UniProt O95180); type: functional;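 also: channel activity triggered by adding a high calcium stimulation buffer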
[4] = THP-1 cell cytotoxicity, dose response, cytotoxicity control for non-replicating M. tuberculosis project (AID 489025); type: functional
[5] = molecular target: T1, Ubiquitin-conjugating enzyme E2 N (Homo sapiens, UniProt P61088); type: functional
T1 sequence (P61088 whole entry): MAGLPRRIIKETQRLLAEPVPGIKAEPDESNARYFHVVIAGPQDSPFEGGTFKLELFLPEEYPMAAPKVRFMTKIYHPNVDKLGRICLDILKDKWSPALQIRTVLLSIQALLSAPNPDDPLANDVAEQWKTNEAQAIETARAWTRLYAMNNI

[6] = molecular target: T1, Ubiquitin-conjugating enzyme E2 N; type: functional; remark: listed apart in the source
Bcl-2-related protein A1 = molecular target: T2, Bcl-2-related protein A1 (Mus musculus, UniProt Q07440); type: functional;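 also: confirmatory dose–response counterscreen on Bfl-1, used to check hits from a UBC13 polyubiquitin inhibitor campaign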
T2 sequence (Q07440 whole entry): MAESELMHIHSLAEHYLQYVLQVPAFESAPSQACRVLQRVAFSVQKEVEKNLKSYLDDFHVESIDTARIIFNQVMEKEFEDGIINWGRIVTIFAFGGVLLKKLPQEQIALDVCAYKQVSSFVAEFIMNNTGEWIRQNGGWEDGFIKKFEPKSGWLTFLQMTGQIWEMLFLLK

[7] = molecular target: T3, Short transient receptor potential channel 4 (Mus musculus, UniProt Q9QUQ5); experiment: mouse TRPC4 channel activators, dose response, cell-based, HEK293 TRPC4/mu-opioid, Fluo-4 calcium (AID 434937); type: functional
T3 sequence (Q9QUQ5 whole entry): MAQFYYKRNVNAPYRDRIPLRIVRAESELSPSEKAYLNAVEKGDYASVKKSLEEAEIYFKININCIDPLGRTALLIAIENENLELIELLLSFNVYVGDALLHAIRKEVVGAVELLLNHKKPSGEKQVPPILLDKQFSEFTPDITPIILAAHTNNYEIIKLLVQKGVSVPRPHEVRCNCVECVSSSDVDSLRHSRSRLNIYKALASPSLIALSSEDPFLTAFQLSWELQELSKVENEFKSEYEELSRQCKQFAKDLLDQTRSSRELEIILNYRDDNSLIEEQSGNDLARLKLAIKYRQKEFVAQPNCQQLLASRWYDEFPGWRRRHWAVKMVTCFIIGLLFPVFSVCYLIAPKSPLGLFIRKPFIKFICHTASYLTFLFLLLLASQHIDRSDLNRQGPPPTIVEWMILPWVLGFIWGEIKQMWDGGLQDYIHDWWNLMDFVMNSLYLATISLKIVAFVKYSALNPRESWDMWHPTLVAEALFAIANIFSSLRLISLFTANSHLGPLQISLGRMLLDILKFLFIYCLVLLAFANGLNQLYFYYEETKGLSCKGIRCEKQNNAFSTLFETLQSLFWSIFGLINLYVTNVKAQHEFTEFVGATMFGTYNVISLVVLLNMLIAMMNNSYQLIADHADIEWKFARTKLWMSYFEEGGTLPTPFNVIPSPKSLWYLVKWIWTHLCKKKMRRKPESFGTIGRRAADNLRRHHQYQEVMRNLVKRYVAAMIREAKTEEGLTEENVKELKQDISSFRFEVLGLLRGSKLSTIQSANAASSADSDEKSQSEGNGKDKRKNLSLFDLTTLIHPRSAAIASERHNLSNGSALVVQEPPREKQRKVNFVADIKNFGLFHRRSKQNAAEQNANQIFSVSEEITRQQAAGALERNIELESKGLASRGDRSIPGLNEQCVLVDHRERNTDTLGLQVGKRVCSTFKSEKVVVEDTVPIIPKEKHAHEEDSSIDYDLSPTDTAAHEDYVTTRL

Cytochrome P450 3A4 = Cytochrome P450 3A4 (Homo sapiens, UniProt P08684);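 also: CYP3A4 tested as one member of a cytochrome P450 panel screen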
Beta-galactosidase = Beta-galactosidase (Escherichia coli, UniProt Q8VNN2); experiment: PubChem AID 485352; type: functional
[8] = molecular target: T4, Type-1 angiotensin II receptor (Homo sapiens, UniProt P30556); experiment: AT1 receptor antagonists, dose response, selectivity assay for APJ receptor antagonist project, cell-based, uHTS hits (AID 463214); type: functional;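 also: antagonist potency against angiotensin II stimulated AT1 response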
T4 sequence (P30556 whole entry): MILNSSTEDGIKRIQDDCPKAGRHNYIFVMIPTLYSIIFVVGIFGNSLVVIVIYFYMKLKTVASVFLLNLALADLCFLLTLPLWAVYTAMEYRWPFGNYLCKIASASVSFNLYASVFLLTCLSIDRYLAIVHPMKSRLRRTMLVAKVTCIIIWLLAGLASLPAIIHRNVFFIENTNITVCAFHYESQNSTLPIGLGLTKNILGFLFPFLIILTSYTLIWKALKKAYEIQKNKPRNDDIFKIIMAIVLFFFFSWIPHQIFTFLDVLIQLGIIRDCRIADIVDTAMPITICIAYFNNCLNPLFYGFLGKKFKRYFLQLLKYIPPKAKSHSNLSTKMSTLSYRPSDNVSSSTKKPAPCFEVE

Cytochrome P450 2C9 = Cytochrome P450 2C9 (Homo sapiens, UniProt P11712)
Genome polyprotein = Genome polyprotein (dengue virus type 2, UniProt P29990); experiment: Dengue-2 NS5 methyltransferase inhibitors, primary screen, biochemical, confirmation dose response (AID 588689); type: functional
[9] = molecular target: Dual specificity tyrosine-phosphorylation-regulated kinase 1A (Rattus norvegicus, UniProt Q63470); type: biochemical, Homo sapiens
[10] = tested on: Streptococcus sp. 'group A'; experiment: growth inhibition of control SK(-) GAS strain, dose response, counter-screen for streptokinase expression inhibitor project, luminescence, kanamycin, BacTiterGlo, confirmation (AID 1900); type: functional, organism-based
Streptococcus = experiment: Group A Streptococcus viability loss, dose response, counter-screen for streptokinase expression inhibitor project, luminescence, BacTiterGlo (AID 1915); type: functional, organism-based;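 also: potency for reduction of bacterial viability or growth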
Cytochrome P450 2C19 = Cytochrome P450 2C19 (Homo sapiens, UniProt P33261); experiment: Cytochrome panel assay with activity outcomes. Panel member name: p450-cyp2c19 Compounds with AC50 equal or less than 10 uM are considered active; type: functional; details: read-out: AC50
Streptokinase A = molecular target: T5, Streptokinase A (Streptococcus pyogenes serotype M1, UniProt P10520); experiment: S. pyogenes streptokinase expression inhibitors, potency, dose response, plasminogen activation absorbance, OD405 (AID 1914); type: functional, Streptococcus pyogenes M1 GAS;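 also: secreted streptokinase activity via plasminogen activation per viability signal from cell pellet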
T5 sequence (P10520 whole entry): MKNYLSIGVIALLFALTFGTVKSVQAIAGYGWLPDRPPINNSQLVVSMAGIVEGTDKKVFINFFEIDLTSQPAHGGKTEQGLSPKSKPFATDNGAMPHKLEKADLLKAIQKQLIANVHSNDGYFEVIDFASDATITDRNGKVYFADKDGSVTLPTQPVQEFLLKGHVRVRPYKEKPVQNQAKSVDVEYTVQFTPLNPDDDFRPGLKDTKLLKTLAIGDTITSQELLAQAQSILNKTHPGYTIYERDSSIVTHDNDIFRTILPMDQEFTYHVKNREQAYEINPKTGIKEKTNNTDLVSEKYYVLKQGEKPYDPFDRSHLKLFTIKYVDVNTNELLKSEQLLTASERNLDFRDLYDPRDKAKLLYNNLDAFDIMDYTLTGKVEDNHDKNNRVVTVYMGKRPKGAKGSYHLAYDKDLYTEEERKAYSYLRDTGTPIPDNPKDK

Cytochrome P450 1A2 = molecular target: T6, Cytochrome P450 1A2 (Homo sapiens, UniProt P05177);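 also: PubChem cytochrome P450 panel assay, CYP1A2 panel member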
T6 sequence (P05177 whole entry): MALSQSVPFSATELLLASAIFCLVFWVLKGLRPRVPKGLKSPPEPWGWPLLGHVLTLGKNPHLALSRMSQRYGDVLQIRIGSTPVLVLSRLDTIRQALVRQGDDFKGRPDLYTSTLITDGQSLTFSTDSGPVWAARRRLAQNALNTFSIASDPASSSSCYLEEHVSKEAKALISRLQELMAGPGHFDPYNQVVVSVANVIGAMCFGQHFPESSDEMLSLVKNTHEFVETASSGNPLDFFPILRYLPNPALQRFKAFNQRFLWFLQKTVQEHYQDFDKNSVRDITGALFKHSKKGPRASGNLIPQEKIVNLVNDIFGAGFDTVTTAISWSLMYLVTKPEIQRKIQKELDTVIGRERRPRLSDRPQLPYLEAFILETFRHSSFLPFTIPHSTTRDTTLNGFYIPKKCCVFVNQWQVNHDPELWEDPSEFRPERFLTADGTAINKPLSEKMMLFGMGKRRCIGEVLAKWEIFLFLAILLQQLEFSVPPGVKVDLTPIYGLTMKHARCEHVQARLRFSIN

Sequence of Cytochrome P450 3A4 (P08684 whole entry): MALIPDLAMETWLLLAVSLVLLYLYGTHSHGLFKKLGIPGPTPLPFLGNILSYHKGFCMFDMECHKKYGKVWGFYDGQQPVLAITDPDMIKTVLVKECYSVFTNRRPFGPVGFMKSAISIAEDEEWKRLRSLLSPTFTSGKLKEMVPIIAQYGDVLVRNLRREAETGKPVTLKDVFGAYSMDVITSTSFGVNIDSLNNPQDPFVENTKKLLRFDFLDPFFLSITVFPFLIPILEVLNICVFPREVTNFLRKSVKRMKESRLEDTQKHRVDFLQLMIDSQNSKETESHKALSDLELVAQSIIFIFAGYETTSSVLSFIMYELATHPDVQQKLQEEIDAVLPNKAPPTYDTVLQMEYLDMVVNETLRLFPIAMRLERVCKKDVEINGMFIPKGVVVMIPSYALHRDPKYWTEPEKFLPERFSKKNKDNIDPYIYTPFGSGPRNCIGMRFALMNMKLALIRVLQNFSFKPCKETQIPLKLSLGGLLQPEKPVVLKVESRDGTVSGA
Sequence of Beta-galactosidase (Q8VNN2 whole entry): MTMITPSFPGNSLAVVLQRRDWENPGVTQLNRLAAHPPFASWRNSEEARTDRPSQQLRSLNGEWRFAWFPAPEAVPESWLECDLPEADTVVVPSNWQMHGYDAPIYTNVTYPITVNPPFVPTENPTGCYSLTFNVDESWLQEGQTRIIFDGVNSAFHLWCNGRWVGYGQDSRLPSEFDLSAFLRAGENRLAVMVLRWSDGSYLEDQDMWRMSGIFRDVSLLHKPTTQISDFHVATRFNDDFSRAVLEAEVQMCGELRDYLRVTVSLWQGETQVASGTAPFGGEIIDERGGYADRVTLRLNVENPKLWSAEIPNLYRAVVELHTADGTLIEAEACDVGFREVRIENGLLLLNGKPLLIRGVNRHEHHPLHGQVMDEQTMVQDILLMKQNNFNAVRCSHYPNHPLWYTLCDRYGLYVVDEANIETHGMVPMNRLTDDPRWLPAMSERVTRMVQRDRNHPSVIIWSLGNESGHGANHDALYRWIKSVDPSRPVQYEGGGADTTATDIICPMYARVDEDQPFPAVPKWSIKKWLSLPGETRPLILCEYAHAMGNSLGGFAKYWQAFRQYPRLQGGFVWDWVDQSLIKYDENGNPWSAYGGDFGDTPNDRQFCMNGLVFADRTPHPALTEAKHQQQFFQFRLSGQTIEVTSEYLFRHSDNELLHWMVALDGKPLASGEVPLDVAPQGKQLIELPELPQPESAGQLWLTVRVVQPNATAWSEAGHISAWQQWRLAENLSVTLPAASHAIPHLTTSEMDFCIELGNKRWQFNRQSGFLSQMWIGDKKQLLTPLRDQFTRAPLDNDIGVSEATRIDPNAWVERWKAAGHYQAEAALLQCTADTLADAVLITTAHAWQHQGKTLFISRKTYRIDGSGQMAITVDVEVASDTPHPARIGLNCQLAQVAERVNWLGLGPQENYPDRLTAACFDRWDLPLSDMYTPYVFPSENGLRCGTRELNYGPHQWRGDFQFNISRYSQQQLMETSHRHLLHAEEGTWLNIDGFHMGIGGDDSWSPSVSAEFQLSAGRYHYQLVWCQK
Sequence of Cytochrome P450 2C19 (P33261 whole entry): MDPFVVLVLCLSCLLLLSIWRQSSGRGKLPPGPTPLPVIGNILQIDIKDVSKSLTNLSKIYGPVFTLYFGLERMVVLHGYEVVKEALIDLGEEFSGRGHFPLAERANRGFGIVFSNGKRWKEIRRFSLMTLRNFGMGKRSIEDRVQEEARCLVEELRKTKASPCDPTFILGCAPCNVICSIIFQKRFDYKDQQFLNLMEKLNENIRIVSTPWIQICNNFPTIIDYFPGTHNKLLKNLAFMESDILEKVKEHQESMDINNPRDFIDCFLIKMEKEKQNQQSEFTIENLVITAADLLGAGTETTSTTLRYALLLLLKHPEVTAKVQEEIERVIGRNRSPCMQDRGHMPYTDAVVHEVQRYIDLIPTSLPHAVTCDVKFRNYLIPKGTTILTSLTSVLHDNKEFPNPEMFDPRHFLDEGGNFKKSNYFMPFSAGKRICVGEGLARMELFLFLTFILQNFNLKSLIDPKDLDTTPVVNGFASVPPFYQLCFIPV
Sequence of Cytochrome P450 2C9 (P11712 whole entry): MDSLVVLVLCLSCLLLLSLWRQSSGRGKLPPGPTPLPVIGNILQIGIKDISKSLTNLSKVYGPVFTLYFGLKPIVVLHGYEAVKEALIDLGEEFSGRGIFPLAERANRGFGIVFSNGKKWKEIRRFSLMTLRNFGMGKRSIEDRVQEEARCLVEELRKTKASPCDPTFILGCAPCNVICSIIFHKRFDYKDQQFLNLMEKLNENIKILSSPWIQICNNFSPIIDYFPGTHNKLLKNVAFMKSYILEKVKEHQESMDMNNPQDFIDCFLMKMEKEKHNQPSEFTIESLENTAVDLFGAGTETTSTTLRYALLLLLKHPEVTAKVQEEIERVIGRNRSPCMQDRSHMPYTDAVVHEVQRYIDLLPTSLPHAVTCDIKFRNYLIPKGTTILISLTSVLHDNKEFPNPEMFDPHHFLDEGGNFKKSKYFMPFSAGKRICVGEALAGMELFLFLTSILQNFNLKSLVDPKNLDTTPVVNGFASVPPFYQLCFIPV
Sequence of Voltage-dependent T-type calcium channel subunit alpha-1H (O95180 whole entry): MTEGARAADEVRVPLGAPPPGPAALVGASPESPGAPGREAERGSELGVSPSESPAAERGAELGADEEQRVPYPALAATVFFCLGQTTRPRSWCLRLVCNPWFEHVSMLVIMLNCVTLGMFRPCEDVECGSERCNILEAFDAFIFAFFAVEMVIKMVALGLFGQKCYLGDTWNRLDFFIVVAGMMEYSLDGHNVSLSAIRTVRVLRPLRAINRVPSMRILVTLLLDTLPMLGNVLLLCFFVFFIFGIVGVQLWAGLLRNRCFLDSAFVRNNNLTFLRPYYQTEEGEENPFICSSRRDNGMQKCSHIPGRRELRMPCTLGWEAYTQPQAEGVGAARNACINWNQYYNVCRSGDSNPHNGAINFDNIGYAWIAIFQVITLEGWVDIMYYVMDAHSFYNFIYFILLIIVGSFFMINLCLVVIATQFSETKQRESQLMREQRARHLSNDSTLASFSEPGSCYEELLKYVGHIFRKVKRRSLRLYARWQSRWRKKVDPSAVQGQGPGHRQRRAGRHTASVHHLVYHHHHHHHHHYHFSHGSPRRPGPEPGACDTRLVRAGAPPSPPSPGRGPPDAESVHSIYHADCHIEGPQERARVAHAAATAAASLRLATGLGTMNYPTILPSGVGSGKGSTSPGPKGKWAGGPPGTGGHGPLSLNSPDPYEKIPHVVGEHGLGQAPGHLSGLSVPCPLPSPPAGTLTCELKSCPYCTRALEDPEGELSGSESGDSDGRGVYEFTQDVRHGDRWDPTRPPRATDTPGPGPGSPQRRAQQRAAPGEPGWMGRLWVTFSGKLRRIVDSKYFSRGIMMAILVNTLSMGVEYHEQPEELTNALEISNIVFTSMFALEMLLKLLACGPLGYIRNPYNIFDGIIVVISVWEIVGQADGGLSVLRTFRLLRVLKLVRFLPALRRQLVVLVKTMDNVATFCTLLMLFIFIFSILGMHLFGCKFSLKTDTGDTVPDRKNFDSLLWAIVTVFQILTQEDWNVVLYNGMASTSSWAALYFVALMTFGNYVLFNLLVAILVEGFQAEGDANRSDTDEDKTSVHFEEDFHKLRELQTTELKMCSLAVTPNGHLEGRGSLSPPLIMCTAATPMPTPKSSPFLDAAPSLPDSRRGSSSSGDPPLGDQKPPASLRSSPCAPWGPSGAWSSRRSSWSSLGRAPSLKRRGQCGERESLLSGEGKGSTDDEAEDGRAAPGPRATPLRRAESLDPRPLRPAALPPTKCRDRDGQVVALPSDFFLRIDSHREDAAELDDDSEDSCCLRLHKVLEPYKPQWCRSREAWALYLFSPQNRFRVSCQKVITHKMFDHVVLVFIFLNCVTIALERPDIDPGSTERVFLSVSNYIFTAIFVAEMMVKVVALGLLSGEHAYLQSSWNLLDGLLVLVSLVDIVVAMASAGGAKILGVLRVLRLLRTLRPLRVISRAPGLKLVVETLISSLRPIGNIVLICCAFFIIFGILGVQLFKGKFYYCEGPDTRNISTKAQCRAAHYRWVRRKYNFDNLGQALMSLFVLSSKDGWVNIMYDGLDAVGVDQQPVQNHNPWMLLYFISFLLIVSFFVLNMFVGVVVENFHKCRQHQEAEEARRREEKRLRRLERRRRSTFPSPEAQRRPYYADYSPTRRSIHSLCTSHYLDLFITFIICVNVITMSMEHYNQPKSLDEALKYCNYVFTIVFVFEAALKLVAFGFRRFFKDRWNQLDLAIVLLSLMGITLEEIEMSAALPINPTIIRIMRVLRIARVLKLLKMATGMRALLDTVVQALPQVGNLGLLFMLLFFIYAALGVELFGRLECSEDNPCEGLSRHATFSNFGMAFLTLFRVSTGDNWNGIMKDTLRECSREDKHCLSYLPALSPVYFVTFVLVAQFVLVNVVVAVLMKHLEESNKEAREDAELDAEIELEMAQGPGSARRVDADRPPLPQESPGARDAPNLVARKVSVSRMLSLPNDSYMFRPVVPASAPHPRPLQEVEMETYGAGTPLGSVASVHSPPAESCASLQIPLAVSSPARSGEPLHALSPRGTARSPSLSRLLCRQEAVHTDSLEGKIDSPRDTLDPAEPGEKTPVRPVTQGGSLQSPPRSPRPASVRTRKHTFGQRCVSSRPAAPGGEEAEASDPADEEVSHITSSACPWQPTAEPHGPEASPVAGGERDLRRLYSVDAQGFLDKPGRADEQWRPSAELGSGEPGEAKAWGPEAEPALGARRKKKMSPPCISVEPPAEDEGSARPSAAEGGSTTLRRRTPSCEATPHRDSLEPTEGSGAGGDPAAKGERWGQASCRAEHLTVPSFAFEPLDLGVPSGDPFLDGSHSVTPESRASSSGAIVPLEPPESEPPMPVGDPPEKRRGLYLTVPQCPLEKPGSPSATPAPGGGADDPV

Which IC50 (cells) does the source give for `O=C(NCC1CCN(c2ccc(S(=O)(=O)N3CCOCC3)cc2)CC1)c1ccc(Cl)cc1` here?
The IC50 was 31.3 µM (active).

And the CC50 [1]?
Its CC50 is > 20 µM (active).

What about the CC50 [2] of the same molecule?
Its CC50 is > 40 µM (active).

And the EC50 [3]?
Its EC50 is 21.2 µM (active).

And the CC50 [4]?
Its CC50 is > 40 µM (active).

What does the source list for `Cc1ccc(-c2oc3ncnc(N)c3c2-c2ccc(C)cc2)cc1`?
IC50 [5]: 4.6 µM (active); IC50 [6]: 12.5 µM (active); IC50 (Bcl-2-related protein A1): > 20 µM (inactive)

For `CSc1ccc(C(=O)NCC(c2ccco2)N(C)C)cc1[N+](=O)[O-]` (configuration not stated), which EC50 [7] is on record?
The EC50 was 0.0333 µM (active).

For `CN1CCN(c2ncc3nc(-c4ccc(Cl)cc4)c(=O)n(C4CC4)c3n2)CC1`, which AC50 (Cytochrome P450 3A4) is on record?
Its AC50 is “inconclusive”.

For `N#CC(C#N)=CC1=C2OC(c3ccccc3)=CC(c3ccccc3)=C2CCC1`, which EC50 (Beta-galactosidase) is on record?
Its EC50 is > 40 µM (inactive).

What about the IC50 [8] of the same molecule?
The IC50 was > 40 µM (not active).

With `CSCCC(NC(=O)COc1ccccc1)C(=O)OCC(=O)c1cc2ccccc2o1` (configuration not stated) as the molecule, how does the EC50 (Beta-galactosidase) read?
The EC50 was > 40 µM (inactive).

And the IC50 [8]?
Its IC50 is 31.2 µM (not active).

For `COc1ccccc1NCC(=O)c1ccc(Cl)cc1`, which EC50 (Beta-galactosidase) is on record?
Its EC50 is > 40 µM (inactive).

What about the IC50 [8] of the same molecule?
Its IC50 is 35.3 µM (not active).

With `Cn1c(=O)c2c(ncn2Cc2cccc(Cl)c2)n(C)c1=O` as the molecule, how does the IC50 [5] read?
Its IC50 is 11.2 µM (active).

What about the IC50 [6] of the same molecule?
The IC50 was 10.4 µM (active).

What about the IC50 (Bcl-2-related protein A1) of the same molecule?
The IC50 was > 20 µM (inactive).

With `COc1ccc(C(CNc2nc(-c3cccnc3)nc3ccccc23)N(C)C)cc1` (configuration not stated) as the molecule, how does the EC50 [7] read?
The EC50 was 0.473 µM (active).

What does the source list for `COCCNC(=O)Cn1cnc2ccc(S(=O)(=O)N3CCC(C)CC3)cc2c1=O`?
AC50 (Cytochrome P450 3A4): inconclusive; AC50 (Cytochrome P450 2C9): 10 µM (inconclusive)

Which EC50 [7] does the source give for `CC(=O)Nc1ccc(C2(c3ccc(NC(C)=O)cc3)C(=O)Nc3ccccc32)cc1` here?
The EC50 was 1.5 µM (active).

Which IC50 (Genome polyprotein) does the source give for `O=C1NC(=O)/C(=C/c2ccc(-c3cc(C(=O)O)ccc3Cl)o2)S1` here?
Its IC50 is 49.4 µM (active).

And the AC50 [9]?
Its AC50 is 2.56 µM (active).

For `CC(C)c1ccc(OCC(=O)NNC(=S)NC(=O)C2CC2)cc1`, which IC50 [5] is on record?
Its IC50 is 6.97 µM (active).

What about the IC50 [6] of the same molecule?
The IC50 was 17.3 µM (active).

And the IC50 (Bcl-2-related protein A1)?
Its IC50 is > 20 µM (inactive).

And the EC50 [10]?
Its EC50 is 0.85 µM (active).

What about the EC50 (Streptococcus) of the same molecule?
Its EC50 is 1.33 µM (active).

For `CCOc1cccc(OCCCNCCCOC)c1`, which AC50 (Cytochrome P450 3A4) is on record?
Its AC50 is “inconclusive”.

What about the AC50 (Cytochrome P450 2C19) of the same molecule?
Its AC50 is 28.2 µM (inconclusive).

Which EC50 [7] does the source give for `COc1ccc(C(CNC(=O)c2cccc(NS(=O)(=O)c3ccc(C)c(F)c3)c2)N(C)C)cc1` (configuration not stated) here?
The EC50 was 5.31 µM (active).

With `CN(C)C(CNC(C(=O)Nc1ccc(F)cc1)c1ccccc1)c1ccccc1` (configuration not stated) as the molecule, how does the EC50 [7] read?
The EC50 was 0.596 µM (active).

Which IC50 (cells) does the source give for `O=C(N/N=C/c1ccc([N+](=O)[O-])o1)c1ccc(NS(=O)(=O)c2cccs2)cc1` here?
Its IC50 is 7.09 µM (active).

What about the EC50 [10] of the same molecule?
Its EC50 is 1.24 µM (active).

And the EC50 (Streptokinase A)?
Its EC50 is > 150 µM (not active).

And the EC50 (Streptococcus)?
The EC50 was 6.83 µM (active).

What about the CC50 [1] of the same molecule?
The CC50 was 12.9 µM (active).

What about the CC50 [4] of the same molecule?
The CC50 was 15.9 µM (active).

Which AC50 (Cytochrome P450 3A4) does the source give for `O=C1C2C3C=CC(CC3)C2C(=O)N1/N=C/c1ccccc1O` (configuration not stated) here?
The AC50 was “inconclusive”.

What about the AC50 (Cytochrome P450 2C9) of the same molecule?
The AC50 was 14.1 µM (inconclusive).

And the AC50 (Cytochrome P450 1A2)?
The AC50 was 1.78 µM (inconclusive).

And the AC50 (Cytochrome P450 2C19)?
The AC50 was 15.8 µM (inconclusive).

Which IC50 [5] does the source give for `CN(C)C/C=C/C(=O)Nc1cccc(-c2c[nH]c3ncnc(Oc4ccc(NC(=O)CC(=O)Nc5ccc(F)cc5)cc4F)c23)c1` here?
The IC50 was 2.28 µM (active).

What about the IC50 [6] of the same molecule?
Its IC50 is 3.5 µM (active).

What about the IC50 (Bcl-2-related protein A1) of the same molecule?
The IC50 was > 20 µM (inactive).
